What was measured:
[1] = system: Mast/stem cell growth factor receptor Kit (Homo sapiens), P10721 [A829P]; conditions: Compound concentration 100.0 nM
[2] = target: Ephrin type-A receptor 3 (Homo sapiens) (UniProt P29320); conditions: Compound concentration 100.0 nM
[3] = target: Calcium/calmodulin-dependent protein kinase type II subunit delta (Homo sapiens) (UniProt Q13557); conditions: Compound concentration 100.0 nM
[4] = target: Mitogen-activated protein kinase 8 (Homo sapiens) (UniProt P45983); conditions: Compound concentration 100.0 nM
[5] = target: Calcium/calmodulin-dependent protein kinase type 1D (Homo sapiens) (UniProt Q8IU85); conditions: Compound concentration 100.0 nM
[6] = target: 5-hydroxytryptamine receptor 2A (Homo sapiens) (UniProt P28223); conditions: Compound concentration 10.0 uM
[7] = target: Glycogen synthase kinase-3 beta (Homo sapiens) (UniProt P49841); conditions: Compound concentration 100.0 nM
[8] = target: Tyrosine-protein kinase ZAP-70 (Homo sapiens) (UniProt P43403); conditions: Compound concentration 100.0 nM
[9] = target: Tyrosine-protein kinase HCK (Homo sapiens) (UniProt P08631); conditions: Compound concentration 100.0 nM
[10] = target: Mitogen-activated protein kinase kinase kinase 5 (Homo sapiens) (UniProt Q99683); conditions: Compound concentration 100.0 nM
[11] = target: Serine/threonine-protein kinase 25 (Homo sapiens) (UniProt O00506); conditions: Compound concentration 100.0 nM
[12] = target: Mitogen-activated protein kinase 13 (Homo sapiens) (UniProt O15264); conditions: Compound concentration 100.0 nM
[13] = target: Phosphatidylinositol 4-kinase beta (Homo sapiens) (UniProt Q9UBF8); conditions: Compound concentration 100.0 nM
[14] = target: Ephrin type-A receptor 7 (Homo sapiens) (UniProt Q15375); conditions: Compound concentration 100.0 nM
[15] = target: Cyclin-dependent kinase 15 (Homo sapiens) (UniProt Q96Q40); conditions: Compound concentration 100.0 nM
[16] = target: Mitogen-activated protein kinase kinase kinase 4 (Homo sapiens) (UniProt Q9Y6R4); conditions: Compound concentration 100.0 nM
[17] = system: Receptor-type tyrosine-protein kinase FLT3 (Homo sapiens), P36888 [D835H]; conditions: Compound concentration 100.0 nM
[18] = target: Wee1-like protein kinase 2 (Homo sapiens) (UniProt P0C1S8); conditions: Compound concentration 100.0 nM
[19] = system: Serine/threonine-protein kinase B-raf (Homo sapiens), P15056 [V600E]; conditions: Compound concentration 100.0 nM
[20] = target: Bone morphogenetic protein receptor type-2 (Homo sapiens) (UniProt Q13873); conditions: Compound concentration 100.0 nM
[21] = target: Serine/threonine-protein kinase Nek3 (Homo sapiens) (UniProt P51956); conditions: Compound concentration 100.0 nM
[22] = target: Ribosomal protein S6 kinase alpha-5 (Homo sapiens) (UniProt O75582); conditions: Compound concentration 100.0 nM
[23] = target: Cyclin-dependent kinase-like 3 (Homo sapiens) (UniProt Q8IVW4); conditions: Compound concentration 100.0 nM
[24] = target: Mitogen-activated protein kinase kinase kinase 10 (Homo sapiens) (UniProt Q02779); conditions: Compound concentration 100.0 nM
[25] = target: Serine/threonine-protein kinase NLK (Homo sapiens) (UniProt Q9UBE8); conditions: Compound concentration 100.0 nM
[26] = target: Inhibitor of nuclear factor kappa-B kinase subunit epsilon (Homo sapiens) (UniProt Q14164); conditions: Compound concentration 100.0 nM
[27] = target: Ribosomal protein S6 kinase alpha-6 (Homo sapiens) (UniProt Q9UK32); conditions: Compound concentration 100.0 nM
[28] = target: Megakaryocyte-associated tyrosine-protein kinase (Homo sapiens) (UniProt P42679); conditions: Compound concentration 100.0 nM
[29] = target: Vascular endothelial growth factor receptor 3 (Homo sapiens) (UniProt P35916); conditions: Compound concentration 100.0 nM
[30] = target: Cyclin-dependent kinase 7 (Homo sapiens) (UniProt P50613); conditions: Compound concentration 100.0 nM
[31] = target: Beta-2 adrenergic receptor (Homo sapiens) (UniProt P07550); conditions: Compound concentration 10.0 uM
[32] = target: Receptor tyrosine-protein kinase erbB-2 (Homo sapiens) (UniProt P04626); conditions: Compound concentration 100.0 nM
[33] = target: Serine/threonine-protein kinase B-raf (Homo sapiens) (UniProt P15056); conditions: Compound concentration 100.0 nM
[34] = target: Serine/threonine-protein kinase Nek10 (Homo sapiens) (UniProt Q6ZWH5); conditions: Compound concentration 100.0 nM
[35] = target: Cyclin-dependent kinase 19 (Homo sapiens) (UniProt Q9BWU1); conditions: Compound concentration 100.0 nM
[36] = target: Serine/threonine-protein kinase Sgk3 (Homo sapiens) (UniProt Q96BR1); conditions: Compound concentration 100.0 nM
[37] = target: Sodium-dependent noradrenaline transporter (Homo sapiens) (UniProt P23975); conditions: Compound concentration 10.0 uM
[38] = target: Interleukin-1 receptor-associated kinase 4 (Homo sapiens) (UniProt Q9NWZ3); conditions: Compound concentration 100.0 nM
[39] = target: Serine/threonine-protein kinase 26 (Homo sapiens) (UniProt Q9P289); conditions: Compound concentration 100.0 nM
[40] = system: Tyrosine-protein kinase ABL1 (Homo sapiens), P00519 [T315I]; conditions: Compound concentration 100.0 nM
[41] = target: Tyrosine-protein kinase receptor TYRO3 (Homo sapiens) (UniProt Q06418); conditions: Compound concentration 100.0 nM
[42] = system: Phosphatidylinositol 4,5-bisphosphate 3-kinase catalytic subunit alpha isoform (Homo sapiens), P42336 [I800L]; conditions: Compound concentration 100.0 nM
[43] = target: Phosphorylase b kinase gamma catalytic chain, skeletal muscle/heart isoform (Homo sapiens) (UniProt Q16816); conditions: Compound concentration 100.0 nM
[44] = target: SNF-related serine/threonine-protein kinase (Homo sapiens) (UniProt Q9NRH2); conditions: Compound concentration 100.0 nM
[45] = system: Tyrosine-protein kinase ABL1 (Homo sapiens), P00519 [E255K]; conditions: Compound concentration 100.0 nM

Sequence of Serine/threonine-protein kinase 25 (Homo sapiens) (O00506 whole entry, looked up): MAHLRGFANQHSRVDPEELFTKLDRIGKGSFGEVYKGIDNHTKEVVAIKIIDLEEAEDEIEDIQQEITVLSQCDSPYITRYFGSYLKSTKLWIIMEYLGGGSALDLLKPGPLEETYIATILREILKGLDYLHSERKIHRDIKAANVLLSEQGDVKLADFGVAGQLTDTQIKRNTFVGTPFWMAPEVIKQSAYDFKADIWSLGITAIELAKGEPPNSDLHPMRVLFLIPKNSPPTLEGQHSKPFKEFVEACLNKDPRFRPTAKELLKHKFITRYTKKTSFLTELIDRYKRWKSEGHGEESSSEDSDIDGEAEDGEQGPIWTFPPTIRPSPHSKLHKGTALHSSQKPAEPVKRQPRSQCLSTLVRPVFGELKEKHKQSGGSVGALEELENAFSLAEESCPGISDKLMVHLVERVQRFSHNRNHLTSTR
Sequence of Mitogen-activated protein kinase kinase kinase 5 (Homo sapiens) (Q99683 whole entry): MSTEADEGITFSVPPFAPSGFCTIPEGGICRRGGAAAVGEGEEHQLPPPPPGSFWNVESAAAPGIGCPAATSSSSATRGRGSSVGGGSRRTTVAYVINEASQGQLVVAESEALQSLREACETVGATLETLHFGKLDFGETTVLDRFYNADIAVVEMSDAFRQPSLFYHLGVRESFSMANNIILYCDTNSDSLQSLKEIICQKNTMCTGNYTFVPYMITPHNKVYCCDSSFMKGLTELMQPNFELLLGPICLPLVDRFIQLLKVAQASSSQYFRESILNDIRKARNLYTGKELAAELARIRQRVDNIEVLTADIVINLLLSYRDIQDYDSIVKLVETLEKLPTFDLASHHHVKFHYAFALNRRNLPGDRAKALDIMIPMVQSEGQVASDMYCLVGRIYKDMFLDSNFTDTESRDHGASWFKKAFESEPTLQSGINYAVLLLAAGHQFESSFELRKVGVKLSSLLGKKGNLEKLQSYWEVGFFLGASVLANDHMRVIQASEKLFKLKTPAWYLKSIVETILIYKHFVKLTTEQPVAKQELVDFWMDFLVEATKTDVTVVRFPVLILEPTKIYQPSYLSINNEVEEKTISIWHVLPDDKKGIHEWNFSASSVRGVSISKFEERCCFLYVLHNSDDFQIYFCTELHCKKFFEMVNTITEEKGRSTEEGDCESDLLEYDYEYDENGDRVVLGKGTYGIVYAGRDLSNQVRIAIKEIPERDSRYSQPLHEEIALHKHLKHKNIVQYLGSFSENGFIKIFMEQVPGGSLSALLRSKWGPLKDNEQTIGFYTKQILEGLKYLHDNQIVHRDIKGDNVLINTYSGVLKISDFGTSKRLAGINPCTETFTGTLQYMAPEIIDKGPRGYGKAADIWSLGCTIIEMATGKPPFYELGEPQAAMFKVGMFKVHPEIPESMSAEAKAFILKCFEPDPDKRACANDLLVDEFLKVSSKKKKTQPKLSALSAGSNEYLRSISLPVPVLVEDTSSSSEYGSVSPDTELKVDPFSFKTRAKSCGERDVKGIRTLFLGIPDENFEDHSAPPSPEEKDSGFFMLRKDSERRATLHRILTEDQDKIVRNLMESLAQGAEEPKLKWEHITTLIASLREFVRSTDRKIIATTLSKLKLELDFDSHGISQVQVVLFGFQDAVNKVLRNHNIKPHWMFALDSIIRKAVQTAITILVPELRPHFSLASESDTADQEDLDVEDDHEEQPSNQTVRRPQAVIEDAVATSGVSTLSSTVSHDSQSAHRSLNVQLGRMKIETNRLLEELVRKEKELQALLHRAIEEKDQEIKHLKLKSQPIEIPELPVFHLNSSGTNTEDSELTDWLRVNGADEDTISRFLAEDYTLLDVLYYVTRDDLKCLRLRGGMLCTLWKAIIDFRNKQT
Sequence of Cyclin-dependent kinase 19 (Homo sapiens) (Q9BWU1 whole entry): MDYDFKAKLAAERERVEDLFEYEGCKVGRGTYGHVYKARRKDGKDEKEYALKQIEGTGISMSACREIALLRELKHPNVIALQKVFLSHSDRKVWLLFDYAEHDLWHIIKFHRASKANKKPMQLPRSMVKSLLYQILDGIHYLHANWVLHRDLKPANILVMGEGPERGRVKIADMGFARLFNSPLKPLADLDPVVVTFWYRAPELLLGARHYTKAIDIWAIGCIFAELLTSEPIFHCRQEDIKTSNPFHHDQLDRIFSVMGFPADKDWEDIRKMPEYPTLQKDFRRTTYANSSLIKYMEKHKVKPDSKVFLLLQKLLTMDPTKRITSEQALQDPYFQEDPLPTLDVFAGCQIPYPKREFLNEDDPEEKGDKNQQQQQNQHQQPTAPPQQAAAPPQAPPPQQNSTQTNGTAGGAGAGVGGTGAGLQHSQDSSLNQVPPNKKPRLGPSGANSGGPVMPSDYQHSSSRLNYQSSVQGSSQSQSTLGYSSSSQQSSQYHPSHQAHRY
Sequence of Ephrin type-A receptor 3 (Homo sapiens) (P29320 whole entry): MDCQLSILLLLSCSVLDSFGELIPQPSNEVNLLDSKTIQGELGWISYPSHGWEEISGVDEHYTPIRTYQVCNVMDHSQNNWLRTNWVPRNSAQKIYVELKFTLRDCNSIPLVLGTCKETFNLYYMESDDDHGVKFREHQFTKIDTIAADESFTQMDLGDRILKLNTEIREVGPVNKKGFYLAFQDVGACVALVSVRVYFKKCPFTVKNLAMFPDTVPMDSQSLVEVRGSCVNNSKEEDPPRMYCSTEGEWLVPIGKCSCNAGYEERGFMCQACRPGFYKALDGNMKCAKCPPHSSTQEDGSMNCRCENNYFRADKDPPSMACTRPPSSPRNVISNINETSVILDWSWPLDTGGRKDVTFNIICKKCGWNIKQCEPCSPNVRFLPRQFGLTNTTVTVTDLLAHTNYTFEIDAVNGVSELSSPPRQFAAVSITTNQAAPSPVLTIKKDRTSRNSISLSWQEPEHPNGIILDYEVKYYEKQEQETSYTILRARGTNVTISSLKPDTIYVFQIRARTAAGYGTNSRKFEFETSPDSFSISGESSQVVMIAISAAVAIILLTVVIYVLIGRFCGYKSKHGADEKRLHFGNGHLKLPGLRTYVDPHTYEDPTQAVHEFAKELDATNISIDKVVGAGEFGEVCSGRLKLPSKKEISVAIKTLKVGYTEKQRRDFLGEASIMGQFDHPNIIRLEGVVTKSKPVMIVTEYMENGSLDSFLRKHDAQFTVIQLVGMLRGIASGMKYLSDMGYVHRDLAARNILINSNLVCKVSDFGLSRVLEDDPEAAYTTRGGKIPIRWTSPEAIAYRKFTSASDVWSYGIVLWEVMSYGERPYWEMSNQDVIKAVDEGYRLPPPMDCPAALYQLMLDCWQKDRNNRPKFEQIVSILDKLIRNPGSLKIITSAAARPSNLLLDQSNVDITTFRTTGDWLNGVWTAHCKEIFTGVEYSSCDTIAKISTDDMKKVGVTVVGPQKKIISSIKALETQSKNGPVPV
Sequence of Inhibitor of nuclear factor kappa-B kinase subunit epsilon (Homo sapiens) (Q14164 whole entry): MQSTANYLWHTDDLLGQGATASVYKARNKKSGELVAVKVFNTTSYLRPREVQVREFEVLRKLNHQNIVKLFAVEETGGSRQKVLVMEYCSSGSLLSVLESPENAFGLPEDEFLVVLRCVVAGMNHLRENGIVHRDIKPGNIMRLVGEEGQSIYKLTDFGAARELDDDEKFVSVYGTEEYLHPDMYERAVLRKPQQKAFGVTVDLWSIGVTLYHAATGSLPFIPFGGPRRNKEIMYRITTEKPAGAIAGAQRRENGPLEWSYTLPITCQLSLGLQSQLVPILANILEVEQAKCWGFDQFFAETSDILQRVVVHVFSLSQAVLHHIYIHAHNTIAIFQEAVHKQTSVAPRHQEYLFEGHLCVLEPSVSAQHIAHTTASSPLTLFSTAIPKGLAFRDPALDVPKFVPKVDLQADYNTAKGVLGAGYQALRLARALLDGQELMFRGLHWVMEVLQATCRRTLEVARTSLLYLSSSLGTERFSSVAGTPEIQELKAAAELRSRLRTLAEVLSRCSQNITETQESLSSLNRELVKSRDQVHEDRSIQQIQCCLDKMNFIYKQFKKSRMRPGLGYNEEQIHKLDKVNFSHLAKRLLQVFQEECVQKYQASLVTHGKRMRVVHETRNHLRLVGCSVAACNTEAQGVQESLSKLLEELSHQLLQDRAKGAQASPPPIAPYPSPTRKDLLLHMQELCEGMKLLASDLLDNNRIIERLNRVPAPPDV
Sequence of Serine/threonine-protein kinase 26 (Homo sapiens) (Q9P289 2-416 limits assumed): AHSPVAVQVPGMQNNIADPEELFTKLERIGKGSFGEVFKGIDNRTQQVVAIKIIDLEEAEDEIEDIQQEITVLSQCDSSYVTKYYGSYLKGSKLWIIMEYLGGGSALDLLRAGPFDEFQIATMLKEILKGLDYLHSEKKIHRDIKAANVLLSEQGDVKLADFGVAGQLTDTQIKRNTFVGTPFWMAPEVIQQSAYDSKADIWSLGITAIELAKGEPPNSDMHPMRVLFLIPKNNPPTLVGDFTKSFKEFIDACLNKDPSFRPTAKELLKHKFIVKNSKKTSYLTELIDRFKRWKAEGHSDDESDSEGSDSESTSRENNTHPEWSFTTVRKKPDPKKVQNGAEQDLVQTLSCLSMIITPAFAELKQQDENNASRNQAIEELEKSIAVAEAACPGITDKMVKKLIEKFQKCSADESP
Sequence of Serine/threonine-protein kinase Sgk3 (Homo sapiens) (Q96BR1 whole entry): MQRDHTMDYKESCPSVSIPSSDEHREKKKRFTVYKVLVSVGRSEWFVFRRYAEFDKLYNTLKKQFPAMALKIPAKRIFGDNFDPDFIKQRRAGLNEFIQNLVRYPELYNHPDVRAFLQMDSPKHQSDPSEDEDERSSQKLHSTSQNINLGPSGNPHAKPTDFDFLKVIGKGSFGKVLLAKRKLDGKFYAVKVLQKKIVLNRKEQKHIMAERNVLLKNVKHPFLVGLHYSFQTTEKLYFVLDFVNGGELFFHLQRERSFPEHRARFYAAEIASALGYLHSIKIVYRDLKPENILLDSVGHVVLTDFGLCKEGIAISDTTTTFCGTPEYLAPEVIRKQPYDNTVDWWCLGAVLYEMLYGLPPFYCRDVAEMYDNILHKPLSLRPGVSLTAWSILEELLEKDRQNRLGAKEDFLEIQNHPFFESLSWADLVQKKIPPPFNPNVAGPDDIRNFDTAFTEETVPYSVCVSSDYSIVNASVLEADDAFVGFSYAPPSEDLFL

Nc1c(C(=O)NCc2ccc(C(=O)NCCCC3CCCCC3)cc2)cnn1-c1ccccc1 [SR-318]
active: residual activity [22] 23%
inactive: residual activity [1] 100% | residual activity [2] 100% | residual activity [3] 100% | residual activity [4] 100% | residual activity [5] 93% | inhibition [6] 23.7% | residual activity [7] 100% | residual activity [8] 100% | residual activity [9] 100% | residual activity [10] 81% | residual activity [11] 82% | residual activity [12] 100% | residual activity [13] 100% | residual activity [14] 100% | residual activity [15] 95% | residual activity [16] 81% | residual activity [17] 100% | residual activity [18] 100% | residual activity [19] 100% | residual activity [20] 100% | residual activity [21] 100% | residual activity [23] 97% | residual activity [24] 85% | residual activity [25] 96% | residual activity [26] 100% | residual activity [27] 100% | residual activity [28] 100% | residual activity [29] 100% | residual activity [30] 100% | inhibition [31] 6.62% | residual activity [32] 100% | residual activity [33] 90% | residual activity [34] 100% | residual activity [35] 99% | residual activity [36] 90% | inhibition [37] 13.5% | residual activity [38] 100% | residual activity [39] 97% | residual activity [40] 100% | residual activity [41] 100% | residual activity [42] 96% | residual activity [43] 90% | residual activity [44] 91% | residual activity [45] 100%

O=C(NCCCC1CCCCC1)c1ccc(CNC(=O)c2cnn(-c3ccccc3)c2C(F)(F)F)cc1 [SR-321]
inactive: residual activity [1] 100% | residual activity [2] 91% | residual activity [3] 100% | residual activity [4] 99% | residual activity [5] 100% | inhibition [6] 8.57% | residual activity [7] 100% | residual activity [8] 100% | residual activity [9] 100% | residual activity [10] 91% | residual activity [11] 81% | residual activity [12] 100% | residual activity [13] 77% | residual activity [14] 86% | residual activity [15] 77% | residual activity [16] 100% | residual activity [17] 100% | residual activity [18] 100% | residual activity [19] 100% | residual activity [20] 100% | residual activity [21] 100% | residual activity [22] 82% | residual activity [23] 100% | residual activity [24] 87% | residual activity [25] 100% | residual activity [26] 78% | residual activity [27] 100% | residual activity [28] 100% | residual activity [29] 100% | residual activity [30] 100% | inhibition [31] 12.4% | residual activity [32] 100% | residual activity [33] 100% | residual activity [34] 100% | residual activity [35] 96% | residual activity [36] 92% | inhibition [37] -1.78% | residual activity [38] 100% | residual activity [39] 93% | residual activity [40] 80% | residual activity [41] 100% | residual activity [42] 70% | residual activity [43] 100% | residual activity [44] 100% | residual activity [45] 92%
